{"source": "paper PMC9855970", "about": "“Cysteine Biosynthesis in Campylobacter jejuni: Substrate Specificity of CysM and the Dualism of Sulfide” (Biomolecules, 2022)", "molecular_target": "T1, CysM (Cj0912) (Campylobacter jejuni, UniProt P71128)", "T1 sequence (P71128 1-299)": "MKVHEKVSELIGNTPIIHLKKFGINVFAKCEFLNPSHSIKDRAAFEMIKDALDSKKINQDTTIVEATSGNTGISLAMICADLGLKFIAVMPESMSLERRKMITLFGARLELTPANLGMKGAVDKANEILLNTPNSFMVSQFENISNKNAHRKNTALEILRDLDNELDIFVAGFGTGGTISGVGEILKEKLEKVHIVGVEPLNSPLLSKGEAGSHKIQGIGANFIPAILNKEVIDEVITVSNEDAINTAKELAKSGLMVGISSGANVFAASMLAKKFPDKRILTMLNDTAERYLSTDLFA", "assay": "UV-Vis absorbance at […] nm of purified enzyme", "assay_type": "binding", "conditions": "100 mM Tris-HCl pH 7.4, 50 mM NaCl; co-purified, covalent internal Schiff base with lysine", "data": [{"compound": "Cc1ncc(COP(=O)(O)O)c(C=O)c1O", "note": "[PLP, pyridoxal 5′-phosphate]", "values": [{"measurement": "UV-Vis absorbance at 412 nm of purified enzyme", "result": "Cj0912 purified with the PLP cofactor in situ"}]}]}
